Test system: 997726-040-R-J2-PDC tumor spheroids, viability
Experiment: Anticancer human tumor 997726-040-R-J2-PDC patient-derived squamous cell lung carcinoma cell line growth inhibition [PI3K]
Settings: spheroids with HUVEC and MSC; for IC50: curve of first compound; for viability, T/C: stronger effect = lower value
Description: Combinatorial screen of targeted agents with the PI3K inhibitors inavolisib, alpelisib, duvelisib, and copanlisib in multi-cell type tumor spheroids
A high-throughput screen of multi-cell type tumor spheroids was designed to identify active combinations of targeted small molecules and PI3K pathway inhibitors. Complex spheroids include a stromal component modeled by human endothelial cells (HUVEC) and fibroblasts modeled by human mesenchymal stem cells (MSCs). The concentration ranges selected for each drug and investigational agent were based upon clinically achievable concentrations if the clinical Cmax of the agent was known.
Compounds. The drugs and investigational agents: inavolisib (NSC800729), alpelisib (NSC765974), duvelisib (NSC772469), copanlisib (NSC816437), ipatasertib (NSC767898), afuresertib (NSC778305), talazoparib (NSC767125), sapanisertib (NSC764658), selumetinib (NSC741078), tovorafenib (DAY101, NSC766906), vemurafenib (NSC761431), ravoxertinib (NSC781343), sotorasib (NSC818433), MRTX1133 (NSC 836407), abemaciclib (NSC 768073), palbociclib (NSC758247), venetoclax (NSC 766270), SY5609 (NSC837396), enzalutamide (NSC755605), and darolutamide (NSC825331), were obtained from the National Cancer Institute (NCI) Developmental Therapeutics Program Chemical Repository. The FDA-approved anticancer drug set is available from the NCI Developmental Therapeutics Program. […] The stock solutions were prepared in dimethyl sulfoxide (DMSO, Sigma-Aldrich, St. Louis, MO, cat. D2650) at 800-fold the tested concentration and stored at -70 degrees C prior to their use. All drugs and investigational agents were tested over a range starting from a high concentration at or near the clinical Cmax and decreasing in half-log increments. If the clinical Cmax for an agent had not been determined, the highest concentration tested was 10 microM.
Cell Culture. All cells were maintained in an incubator at 37 degrees C and 5% CO2 with 95% humidity. The PDC lines were cultured according to standard operating procedures established by the NCI PDMR (https://pdmr.cancer.gov/sops/default.htm). All PDCs were thawed and cultured in Matrigel-coated flasks prepared with a working solution of 1X Ham's F-12 nutrient mix, without supplementation (Invitrogen, Waltham, MA, cat. 11765054), 100 U/mL penicillin-streptomycin (Invitrogen, cat. 15140122), and 2.5% Matrigel (Corning Inc., Corning, NY, cat. 354248) for the first three passages. The 354836-022-R-J1-PDC, 475296-252-R-J1-PDC, and 997726-040-R-J2-PDC lines were cultured in 6A media, which includes advanced DMEM/F-12 (Thermo Fisher Scientific, cat. 12634028), 10 mM HEPES (Thermo Fisher Scientific, cat. 15630080), 1X GlutaMAX supplement (Thermo Fisher Scientific, cat. 35050061), 0.1 mg/mL primocin (InvivoGen, San Diego, CA, cat. ant-pm-2), 10% defined fetal bovine serum, heat inactivated (HyClone Laboratories Inc., Logan, UT, cat. SH30070.03HI), 50% L-WRN conditioned media (ATCC, cat. CRL-3276), 1.25 mM N-Acetyl-L-cysteine (Sigma-Aldrich, cat. A9165), 10 mM nicotinamide (Sigma-Aldrich, cat. N0636), 1X B-27 supplement (Thermo Fisher Scientific, cat. 17504044), 1X N-2 supplement (Thermo Fisher Scientific, cat. 17502048), and 10 microM Y-27632 dihydrochloride (Tocris Bioscience, Bristol, United Kingdom, cat. 1254). The 624824-186-R-J2-PDC line was cultured in 6C/Colon 1B media, which includes all 6A media components plus 50 ng/mL human EGF recombinant protein (Thermo Fisher Scientific, cat. PHG0311). […]

[1] = second compound 0.00316 µM, first compound 0.0316 µM
[2] = second compound 0.00316 µM, first compound 0.1 µM
[3] = second compound 0.00316 µM, first compound 0.316 µM
[4] = second compound 0.00316 µM, first compound 1 µM
[5] = second compound 0.00316 µM, first compound 3.16 µM
[6] = second compound 0.00316 µM, first compound 10 µM
[7] = second compound 0.01 µM, first compound 0.0316 µM
[8] = second compound 0.01 µM, first compound 0.1 µM
[9] = second compound 0.01 µM, first compound 0.316 µM
[10] = second compound 0.01 µM, first compound 1 µM
[11] = second compound 0.01 µM, first compound 3.16 µM
[12] = second compound 0.01 µM, first compound 10 µM
[13] = second compound 0.0316 µM, first compound 0.0316 µM
[14] = second compound 0.0316 µM, first compound 0.1 µM
[15] = second compound 0.0316 µM, first compound 0.316 µM
[16] = second compound 0.0316 µM, first compound 1 µM
[17] = second compound 0.0316 µM, first compound 3.16 µM
[18] = second compound 0.0316 µM, first compound 10 µM
[19] = second compound 0.1 µM, first compound 0.0316 µM
[20] = second compound 0.1 µM, first compound 0.1 µM
[21] = second compound 0.1 µM, first compound 0.316 µM
[22] = second compound 0.1 µM, first compound 1 µM
[23] = second compound 0.1 µM, first compound 3.16 µM
[24] = second compound 0.1 µM, first compound 10 µM
[25] = second compound 0.316 µM, first compound 0.0316 µM
[26] = second compound 0.316 µM, first compound 0.1 µM
[27] = second compound 0.316 µM, first compound 0.316 µM
[28] = second compound 0.316 µM, first compound 1 µM
[29] = second compound 0.316 µM, first compound 3.16 µM
[30] = second compound 0.316 µM, first compound 10 µM
[31] = second compound 1 µM, first compound 0.0316 µM
[32] = second compound 1 µM, first compound 0.1 µM
[33] = second compound 1 µM, first compound 0.316 µM
[34] = second compound 1 µM, first compound 1 µM
[35] = second compound 1 µM, first compound 3.16 µM
[36] = second compound 1 µM, first compound 10 µM
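Also: spheroids exposed to compounds for seven days before readout.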

**Q.** Which results are given for `CC1(C)CCC(CN2CCN(c3ccc(C(=O)NS(=O)(=O)c4ccc(NCC5CCOCC5)c([N+](=O)[O-])c4)c(Oc4cnc5[nH]ccc5c4)c3)CC2)=C(c2ccc(Cl)cc2)C1` + CC(Nc1ccc2c(c1)OCCn1cc(N3C(=O)OCC3C(F)F)nc1-2)C(N)=O?
**A.** IC50 (second compound 0.00316 µM): 9.17 µM; IC50 (second compound 0.01 µM): 9.25 µM; IC50 (second compound 0.0316 µM): 5.87 µM; IC50 (second compound 0.1 µM): < 0.0316 µM; IC50 (second compound 0.316 µM): < 0.0316 µM; IC50 (second compound 1 µM): < 0.0316 µM; viability, T/C [1]: 74.8%; viability, T/C [2]: 82.8%; viability, T/C [3]: 92.2%; viability, T/C [4]: 83.6%; viability, T/C [5]: 73.1%; viability, T/C [6]: 48.1%; viability, T/C [7]: 64.9%; viability, T/C [8]: 86.6%; viability, T/C [9]: 74.2%; viability, T/C [10]: 81.6%; viability, T/C [11]: 70%; viability, T/C [12]: 48.1%; viability, T/C [13]: 60.8%; viability, T/C [14]: 63.8%; viability, T/C [15]: 70.7%; viability, T/C [16]: 55%; viability, T/C [17]: 62.9%; viability, T/C [18]: 39.5%; viability, T/C [19]: 42.5%; viability, T/C [20]: 42.1%; viability, T/C [21]: 43.5%; viability, T/C [22]: 37.2%; viability, T/C [23]: 39.8%; viability, T/C [24]: 28.3%; viability, T/C [25]: 30.7%; viability, T/C [26]: 33.3%; viability, T/C [27]: 32.9%; viability, T/C [28]: 29.9%; viability, T/C [29]: 24.1%; viability, T/C [30]: 15.9%; viability, T/C [31]: 27.9%; viability, T/C [32]: 21.5%; viability, T/C [33]: 24.5%; viability, T/C [34]: 27.7%; viability, T/C [35]: 24.8%; viability, T/C [36]: 12.3%

**Q.** Which IC50 (second compound 0.00316 µM) does the source give for `C[C@@H](NC(=O)c1ncnc(N)c1Cl)c1ncc(C(=O)Nc2cc(C(F)(F)F)c(Cl)cn2)s1` + CC(Nc1ccc2c(c1)OCCn1cc(N3C(=O)OCC3C(F)F)nc1-2)C(N)=O here?
**A.** > 10 µM

**Q.** What about the IC50 (second compound 0.01 µM) of the same molecule?
**A.** > 10 µM

**Q.** And the IC50 (second compound 0.0316 µM)?
**A.** 6.26 µM

**Q.** What about the IC50 (second compound 0.1 µM) of the same molecule?
**A.** 4.17 µM

**Q.** And the IC50 (second compound 0.316 µM)?
**A.** < 0.0316 µM

**Q.** And the IC50 (second compound 1 µM)?
**A.** < 0.0316 µM

**Q.** What about the viability, T/C [1] of the same molecule?
**A.** 92.1%

**Q.** And the viability, T/C [2]?
**A.** 122%

**Q.** What about the viability, T/C [3] of the same molecule?
**A.** 104%

**Q.** What about the viability, T/C [4] of the same molecule?
**A.** 100%

**Q.** What about the viability, T/C [5] of the same molecule?
**A.** 85.3%

**Q.** What about the viability, T/C [6] of the same molecule?
**A.** 60.4%

**Q.** What about the viability, T/C [7] of the same molecule?
**A.** 89.5%

**Q.** And the viability, T/C [8]?
**A.** 95.2%

**Q.** And the viability, T/C [9]?
**A.** 93.5%

**Q.** And the viability, T/C [10]?
**A.** 93.7%

**Q.** What about the viability, T/C [11] of the same molecule?
**A.** 80.7%

**Q.** And the viability, T/C [12]?
**A.** 58.3%

**Q.** What about the viability, T/C [13] of the same molecule?
**A.** 67%

**Q.** And the viability, T/C [14]?
**A.** 80.4%

**Q.** What about the viability, T/C [15] of the same molecule?
**A.** 66.1%

**Q.** And the viability, T/C [16]?
**A.** 61.9%

**Q.** What about the viability, T/C [17] of the same molecule?
**A.** 57.9%

**Q.** And the viability, T/C [18]?
**A.** 45.3%

**Q.** And the viability, T/C [19]?
**A.** 55%

**Q.** And the viability, T/C [20]?
**A.** 53.7%

**Q.** What about the viability, T/C [21] of the same molecule?
**A.** 58.3%

**Q.** What about the viability, T/C [22] of the same molecule?
**A.** 58.3%

**Q.** And the viability, T/C [23]?
**A.** 51.8%

**Q.** And the viability, T/C [24]?
**A.** 40.5%

**Q.** And the viability, T/C [25]?
**A.** 42.3%

**Q.** And the viability, T/C [26]?
**A.** 39.3%

**Q.** And the viability, T/C [27]?
**A.** 37.1%

**Q.** What about the viability, T/C [28] of the same molecule?
**A.** 41%

**Q.** And the viability, T/C [29]?
**A.** 39.2%

**Q.** And the viability, T/C [30]?
**A.** 30.7%

**Q.** And the viability, T/C [31]?
**A.** 34%

**Q.** What about the viability, T/C [32] of the same molecule?
**A.** 33.8%

**Q.** And the viability, T/C [33]?
**A.** 33.6%

**Q.** What about the viability, T/C [34] of the same molecule?
**A.** 35.5%

**Q.** And the viability, T/C [35]?
**A.** 33.6%

**Q.** What about the viability, T/C [36] of the same molecule?
**A.** 24.1%

From PubChem BioAssay AID1963964 (Molecular Pharmacology Branch, DTP, NCI, 2024)
